Tests used:
[1] = tested on: alpha-glucosidase (Saccharomyces cerevisiae); assay: Inhibitory activity against alpha-glucosidase of yeast; No inhibition
[2] = tested on: Alpha-glucosidase (Saccharomyces cerevisiae); assay: Inhibitory activity against alpha-glucosidase of yeast at a concentration of 0.1 mM

Ki [1]: Not Active | inhibition [2]: < 20%
SMILES: C[C@@H]1NC[C@@H](CO)[C@@H](O)[C@@H]1O

From ChEMBL document CHEMBL1131954, “Homoisofagomines: chemical-enzymatic synthesis and evaluation as alpha- and beta-glucosidase inhibitors” (Bioorg Med Chem Lett, 1999)
